Assay results published in article PMC5041959, “A high-content EMT screen identifies multiple receptor tyrosine kinase inhibitors with activity on TGFβ receptor” (Oncotarget, 2016).
Where two headings read alike, the source gives them in different places.

Key:
Py2T cells = test: High-content microscopy EMT assay in TGFβ-treated Py2T breast cancer cells; format: cell-based, murine; conditions: Py2T; for Emax (maximal effect on cell count): compared to reference 10 μM SB-431542 = 100%
ROCK = ROCK cellular assay (MLC Thr18/Ser19 phosphorylation ELISA in A7r5 cells); format: cell-based, rat; conditions: 90 min compound
NMuMG cells = test: High-content microscopy EMT screen in TGFβ-treated NMuMG cells (FA, SF, FN, cell count); format: cell-based, murine
[1] = cell count decreased by 50% compared to DMSO control, read-out: Tox IC50
[2] = compared to 10 μM SB-431542, read-out: CCI IC50 (cell count increase)
[3] = NMuMG, TGFβ1 2 ng/ml plus compound, 4 days, parameter decreased by 50%
[4] = NMuMG, cell count decreased by 50% compared to DMSO control, read-out: Tox IC50
[5] = NMuMG, cell count increased by 50% compared to 100% with 10 μM SB-431542
[6] = NMuMG, compared to reference 10 μM SB-431542 = 100%
[7] = Mus musculus, NMuMG, cell count decreased by 50% compared to DMSO control, read-out: Tox IC50

Compound	FA IC50 (focal adhesion formation) (NMuMG cells; [3])	FN IC50 (fibronectin patch formation) (NMuMG cells; [3])	SF IC50 (stress fibers) (NMuMG cells; [3])	IC50 (NMuMG cells; [4]) [µM]	Emax (maximal effect on cell count) (NMuMG cells; [6])	IC50 (NMuMG cells; [7]) [µM]	other results
CCn1c(-c2nonc2N)nc2cnc(Oc3cccc(NC(=O)c4ccc(OCCN5CCOCC5)cc4)c3)cc21 [GSK269962]							IC50 (Py2T cells; TGFβ plus compound, 4 days, read-out: FA IC50 (focal adhesions)): 0.002 µM; IC50 (Py2T cells; TGFβ plus compound, 4 days, read-out: FN IC50 (fibronectin patches)): 0.005 µM; IC50 (Py2T cells; TGFβ plus compound, 4 days, read-out: SF IC50 (stress fibers)): 0.002 µM; IC50 (Py2T cells; [1]): 0.564 µM; IC50 (Py2T cells; [2]): 0.0005 µM; Emax (maximal effect on cell count) (Py2T cells): 53%; IC50 (ROCK): < 0.003 µM
COc1cc2ncnc(Nc3ccc(F)c(Cl)c3)c2cc1OCCCN1CCOCC1 [Gefitinib]							Emax (maximal effect on cell count) (NMuMG cells): n.m.
O=C(Cc1ccc(-c2ccc(OCCN3CCOCC3)cc2)cn1)NCc1ccccc1 [KX2-391]	n.m.	n.m.	n.m.	0.015	n.m.		CCI IC50 (cell count increase) (NMuMG cells; [5]): n.m.
CS(=O)(=O)CCNCc1ccc(-c2ccc3ncnc(Nc4ccc(OCc5cccc(F)c5)c(Cl)c4)c3c2)o1 [Lapatinib]	n.m.	n.m.	n.m.		n.m.	0.134	
CO[C@@H]1C[C@@H](C[C@H]2CC[C@H](C)[C@H]([C@@H](C)C(=O)O)O2)O[C@]2(O[C@](C)([C@H]3CC[C@@](C)([C@@H]4O[C@@H]([C@H]5O[C@@](O)(CO)[C@H](C)C[C@@H]5C)C[C@@H]4C)O3)C[C@H]2C)[C@@H]1C [Nigericin]	n.m.	n.m.	n.m.		n.m.	< 0.04	
CC(C)(C)n1nc(-c2ccc(Cl)cc2)c2c(N)ncnc21 [PP2]	n.m.	n.m.	n.m.	4.73	n.m.		CCI IC50 (cell count increase) (NMuMG cells; [5]): n.m.
O=C(Nc1ccc(-c2cn[nH]c2)cc1)C1COc2ccccc2O1 (stereo not shown) [Rho kinase inhibitor V]				6.23	13.4%		FA IC50 (focal adhesions) (Py2T cells; TGFβ plus compound, 4 days): n.m.; FN IC50 (fibronectin patches) (Py2T cells; TGFβ plus compound, 4 days): n.m.; SF IC50 (stress fibers) (Py2T cells; TGFβ plus compound, 4 days): n.m.; IC50 (Py2T cells; [1]): 2.51 µM; IC50 (Py2T cells; [2]): 0.101 µM; Emax (maximal effect on cell count) (Py2T cells): 33.3%; IC50 (ROCK): 0.15 µM; IC50 (NMuMG cells; NMuMG, TGFβ1 2 ng/ml plus compound, 4 days, parameter decreased by 50%, read-out: FA IC50 (focal adhesion formation)): 0.425 µM; IC50 (NMuMG cells; NMuMG, TGFβ1 2 ng/ml plus compound, 4 days, parameter decreased by 50%, read-out: FN IC50 (fibronectin patch formation)): 0.374 µM; IC50 (NMuMG cells; NMuMG, TGFβ1 2 ng/ml plus compound, 4 days, parameter decreased by 50%, read-out: SF IC50 (stress fibers)): 0.571 µM; IC50 (NMuMG cells; NMuMG, cell count increased by 50% compared to 100% with 10 μM SB-431542, read-out: CCI IC50 (cell count increase)): 0.106 µM; IC50 (NMuMG cells; NMuMG, mean of IC50 values obtained for FA, SF, FN, read-out: EMT (FA/SF/FN) combined IC50): 0.457 µM
CC[C@@H](C(=O)[C@@H](C)[C@@H](O)[C@H](C)[C@@H]1O[C@@H]([C@@H](CC)C(=O)O)CC[C@@H]1C)[C@H]1O[C@]2(C=C[C@@H](O)[C@]3(CC[C@@](C)([C@H]4CC[C@](O)(CC)[C@H](C)O4)O3)O2)[C@H](C)C[C@@H]1C [Salinomycin]	n.m.	n.m.	n.m.			0.24	Emax (maximal effect on cell count) (NMuMG cells): n.m.
CCN(CC)CCNC(=O)c1c(C)[nH]c(/C=C2\C(=O)Nc3ccc(F)cc32)c1C [Sunitinib malate]	n.m.	n.m.	n.m.		n.m.	5.1	
N#CC(=C(/N)Sc1ccccc1N)/C(C#N)=C(/N)Sc1ccccc1N [U0126]	n.m.	n.m.	n.m.	1.6	n.m.		CCI IC50 (cell count increase) (NMuMG cells; [5]): n.m.
COc1cc2c(Nc3ccc(Br)cc3F)ncnc2cc1OCC1CCN(C)CC1 [Vandetanib]	n.m.	n.m.	n.m.		n.m.	0.208	
Clc1ccc(Nc2nnc(Cc3ccncc3)c3ccccc23)cc1 [Vatalanib]	n.m.	n.m.	n.m.		n.m.	10.6	
AZD4547	n.m.	n.m.	n.m.	3.03			CCI IC50 (cell count increase) (NMuMG cells): n.m.; Emax (maximal effect on cell count) (NMuMG cells): n.m.
Abamectin	n.m.	n.m.	n.m.	9.5	n.m.		CCI IC50 (cell count increase) (NMuMG cells; [5]): n.m.
